{
  "source": "patent US9605005B2",
  "about": "“Alkynyl alcohols and methods of use” (Genentech, Inc., priority 2013, dated 2017)",
  "key": {"[1]": {"tested_on": "p52 (NF-kB2) nuclear translocation, HeLa cells", "test": "p52 (NF-kB2) nuclear translocation assay in HeLa cells (non-classical NF-kB signaling, anti-lymphotoxin beta receptor antibody stimulated)", "format": "cell-based", "conditions": "Homo sapiens, 100 ng/mL anti-lymphotoxin beta receptor antibody for 5 hours, read-out: p52 HeLa Transloc Assay (IC50)", "how_it_was_run": "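HeLa cells in 10% FBS medium were treated with compound (0.2% DMSO final) and stimulated with 100 ng/mL anti-lymphotoxin beta receptor antibody for 5 h. Fixed cells were immunostained for p52 and imaged with DRAQ5 nuclear stain. Translocation is the nuclear to cytoplasmic intensity ratio, and IC50 values are in micromolar.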"}, "[2]": {"biological_target": "nuclear factor-kappa B (NF-kB)-inducing kinase (NIK) (Homo sapiens (Human), UniProt Q99558)", "sequence (Q99558 whole entry)": "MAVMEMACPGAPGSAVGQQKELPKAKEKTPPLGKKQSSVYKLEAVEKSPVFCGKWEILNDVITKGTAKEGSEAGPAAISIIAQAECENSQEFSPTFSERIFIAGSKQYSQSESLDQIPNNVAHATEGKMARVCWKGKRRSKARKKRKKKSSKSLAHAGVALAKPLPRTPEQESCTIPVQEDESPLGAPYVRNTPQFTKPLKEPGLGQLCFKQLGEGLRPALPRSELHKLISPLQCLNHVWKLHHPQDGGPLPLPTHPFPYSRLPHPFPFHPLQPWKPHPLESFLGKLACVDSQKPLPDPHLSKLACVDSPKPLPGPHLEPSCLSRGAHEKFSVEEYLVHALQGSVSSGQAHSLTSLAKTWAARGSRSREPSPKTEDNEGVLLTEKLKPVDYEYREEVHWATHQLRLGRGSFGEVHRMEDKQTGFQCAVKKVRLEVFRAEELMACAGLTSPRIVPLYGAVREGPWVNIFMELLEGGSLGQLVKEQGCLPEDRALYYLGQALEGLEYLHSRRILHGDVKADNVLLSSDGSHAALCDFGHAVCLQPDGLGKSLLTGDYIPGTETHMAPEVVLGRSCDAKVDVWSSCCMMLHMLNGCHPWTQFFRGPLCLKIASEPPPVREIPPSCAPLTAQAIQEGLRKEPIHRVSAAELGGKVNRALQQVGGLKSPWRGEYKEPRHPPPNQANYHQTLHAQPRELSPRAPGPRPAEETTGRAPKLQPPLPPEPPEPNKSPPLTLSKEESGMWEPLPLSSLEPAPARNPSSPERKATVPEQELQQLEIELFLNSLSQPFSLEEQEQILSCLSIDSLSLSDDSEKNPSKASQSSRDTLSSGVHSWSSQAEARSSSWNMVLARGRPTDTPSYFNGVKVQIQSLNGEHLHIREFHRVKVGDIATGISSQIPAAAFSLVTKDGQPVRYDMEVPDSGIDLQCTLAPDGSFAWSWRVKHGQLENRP", "test": "NIK enzyme inhibition assay (Transcreener ADP, NIK ADP-FP)", "format": "biochemical", "conditions": "purified NIK 0.5 nM, 10 μM ATP, fluorescence polarization; read-out: NIK ADP-FP (Ki μM)"}, "[3]": {"tested_on": "REL-A (p65) nuclear translocation, HeLa cells", "test": "REL-A (p65) nuclear translocation assay in HeLa cells (classical NF-kB signaling, TNF-α stimulated)", "format": "cell-based", "conditions": "Homo sapiens, 0.5 h; HeLa cells, 10 ng/mL TNF-α for 30 minutes; read-out: REL-A HeLa Transloc Assay (IC50)", "how_it_was_run": "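HeLa cells were exposed to test compounds at various concentrations (0.2% DMSO final) in medium with 10% fetal bovine serum for 4.5 hours, then stimulated for 30 minutes with 10 ng/mL TNF-α. After fixation in 4% paraformaldehyde, 0.1% Triton X-100 permeabilization and staining with 400 ng/mL anti-REL-A (p65) antibody, Alexa488 secondary and DRAQ5, Opera imaging gave nuclear-to-cytoplasmic signal ratios to calculate IC50.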"}},
  "data": [
    {"smiles": "Cc1nnc([C@](C)(O)C#Cc2cccc(-c3nc(C(N)=O)n4ccc(Cl)cc34)c2)o1", "note": "[Compound 187, 7-chloro-1-[3-[(3R)-3-hydroxy-3-(5-methyl-1,3,4-oxadiazol-2-yl)but-1-ynyl]phenyl] imidazo[1,5-a]pyridine-3-carboxamide]", "values": [
      {"measurement": "IC50", "setting": "[1]", "result": 198, "unit": "nM"},
      {"measurement": "Ki", "setting": "[2]", "result": 1.12, "unit": "nM"},
      {"measurement": "IC50", "setting": "[3]", "result": "> 2000", "unit": "nM"}
    ]},
    {"smiles": "CC1Cc2c(C(N)=O)nn(-c3cccc(C#C[C@]4(O)CCN(C)C4=O)c3)c2C1", "note": "(stereo partly drawn) [Compound 188, 1-[3-[2-[(3R)-3-hydroxy-1-methyl-2-oxo-pyrrolidin-3-yl]ethynyl]phenyl]-5-methyl-5,6-dihydro-4H-cyclopenta [c]pyrazole-3-carboxamide]", "values": [
      {"measurement": "IC50", "setting": "[1]", "result": 205, "unit": "nM"},
      {"measurement": "Ki", "setting": "[2]", "result": 0.85, "unit": "nM"},
      {"measurement": "IC50", "setting": "[3]", "result": "> 2000", "unit": "nM"}
    ]},
    {"smiles": "CN1CC[C@@](O)(C#Cc2cccc(-n3nc(C(N)=O)c4ccc(F)cc43)c2)C1=O", "note": "[Compound 189, 6-fluoro-1-[3-[2-[(3R)-3-hydroxy-1-methyl-2-oxo-pyrrolidin-3-yl]ethynyl]phenyl] indazole-3-carboxamide]", "values": [
      {"measurement": "IC50", "setting": "[1]", "result": 95, "unit": "nM"},
      {"measurement": "Ki", "setting": "[2]", "result": 0.05, "unit": "nM"},
      {"measurement": "IC50", "setting": "[3]", "result": "> 2000", "unit": "nM"}
    ]}
  ]
}
